Drawing on US8124610B2, “Sodium channel inhibitors” (Icagen Inc., priority 2007, dated 2012), this text covers IC50 for 24 molecules.

Bounds are passed on as bounds.

Test [1] deals with T1, hSCN3A (Homo sapiens, UniProt Q9NY46).
T1 construct: expressed in transfected cells
The test can be described thus: Whole-cell patch-clamp electrophysiology (conventional or PatchXpress), HEK cells expressing hSCN3A, estimated IC-50. Format: cell-based. Particulars: Table V; estimated IC-50 from single point electrophysiology, cells clamped at V1/2; read-out: SCN3A EIC-50. The method, then: Human Embryonic Kidney (HEK) cells were transfected with hSCN3A or hSCN9A constructs using lipofectamine reagent (Invitrogen), using standard techniques. Cells stably expressing the hSCN3A or hSCN9A constructs were identified by their resistance to G-418 (400 μg/ml). Clones were screened for expression using the whole-cell voltage-clamp technique. HEK cells stably transfected with hSCN3A or hSCN9A were maintained in DMEM medium supplemented with 10% heat-inactivated fetal bovine serum and 400 μg/ml G418 sulfate in an incubator at 37° C. with a humidified atmosphere of 10% CO2. For HTS, cells were harvested from flasks by trypsinization and replated in an appropriate multi-well plate (typically 96 or 384 wells/plate) such that confluence would be achieved within 24 hours of plating. For electrophysiological studies, cells were removed from the culture flask by brief trypsinization and replated at low density onto glass cover slips. Cells were typically used for electrophysiological experiments within 24 to 72 h after plating. Cover slips containing HEK cells expressing hSCN3A or hSCN9A were placed in a bath on the stage of an inverted microscope and perfused (approximately 1 ml/min) with extracellular solution of the following composition: 138 mM NaCl, 2 mM CaCl2, 5.4 mM KCl, 1 mM MgCl2, 10 mM glucose, and 10 mM HEPES, pH 7.4, with NaOH. […] All recordings were made at room temperature (22-24° C.) using AXOPATCH 200B amplifiers and PCLAMP software (Axon Instruments, Burlingame, Calif.) or PatchXpress 7000 hardware and associated software (Axon Instruments, Burlingame, Calif.). hSCN3A or hSCN9A currents in HEK cells were measured using the whole-cell configuration of the patch-clamp technique (Hamill et al., 1981). […] As a result, voltage errors were negligible and no correction was applied. Current records were acquired at 20 to 50 KHz and filtered at 5 to 10 KHz. HEK cells stably transfected with hSCN3A or hSCN9A were viewed under Hoffman contrast optics and placed in front of an array of flow pipes emitting either control or compound-containing extracellular solutions. All compounds were dissolved in dimethyl sulfoxide to make 10 mM stock solutions, which were then diluted into extracellular solution to attain the final concentrations desired. […] The voltage-dependence of inactivation was determined by applying a series of depolarizing prepulses (8 sec long in 10 mV increments) from a negative holding potential. The voltage was then immediately stepped to 0 mV to assess the magnitude of the sodium current. Currents elicited at 0 mV were plotted as a function of prepulse potential to allow estimation of the voltage midpoint of inactivation (V1/2). Cells were then voltage clamped at the empirically determined V1/2. Compounds were tested for their ability to inhibit hSCN3A or hSCN9A sodium channels by activating the channel with a 20 msec voltage step to 0 mV following an 8 second conditioning prepulse to the empirically determined V1-2 (Table B). Compound effect (% inhibition) was determined by difference in current amplitude before and after application of test compounds. […] In some cases electrophysiological assays were conducted with PatchXpress 7000 hardware and associated software (Molecular Devices Corp) (Table B). All assay buffers and solutions were identical to those used in conventional whole-cell voltage clamp experiments described above. hSCN3A or hSCN9A containing cells were grown as above to 50%-80% confluency and harvested by trypsinization. Trypsinized cells were washed and resuspended in extracellular buffer at a concentration of 1×10^6 cells/ml. The onboard liquid handling facility of the PatchXpress was used for dispensing cells and application of test compounds. Determination of the voltage midpoint of inactivation was as described for conventional whole-cell recordings. Cells were then voltage-clamped to the empirically determined V1/2 and current was activated by a 20 msec voltage step to 0 mV.

Test [2] has as its target T2, hSCN9A (Homo sapiens, UniProt Q15858).
T2 construct: expressed in transfected cells
Put plainly: Whole-cell patch-clamp electrophysiology (conventional or PatchXpress), HEK cells expressing hSCN9A, estimated IC-50. Format: cell-based. The note with it: Table V; estimated IC-50 from single point electrophysiology, cells clamped at V1/2; read-out: SCN9A EIC-50. The procedure, abridged:
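Stably transfected HEK cells recorded by whole-cell voltage clamp (manual or PatchXpress) at 22–24 °C in pH 7.4 HEPES-buffered extracellular solution. Cells held at the empirically determined inactivation V1/2 after an 8 s prepulse, then stepped to 0 mV for 20 ms; % inhibition from current amplitude before vs after compound.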

T2 sequence (Q15858 whole entry): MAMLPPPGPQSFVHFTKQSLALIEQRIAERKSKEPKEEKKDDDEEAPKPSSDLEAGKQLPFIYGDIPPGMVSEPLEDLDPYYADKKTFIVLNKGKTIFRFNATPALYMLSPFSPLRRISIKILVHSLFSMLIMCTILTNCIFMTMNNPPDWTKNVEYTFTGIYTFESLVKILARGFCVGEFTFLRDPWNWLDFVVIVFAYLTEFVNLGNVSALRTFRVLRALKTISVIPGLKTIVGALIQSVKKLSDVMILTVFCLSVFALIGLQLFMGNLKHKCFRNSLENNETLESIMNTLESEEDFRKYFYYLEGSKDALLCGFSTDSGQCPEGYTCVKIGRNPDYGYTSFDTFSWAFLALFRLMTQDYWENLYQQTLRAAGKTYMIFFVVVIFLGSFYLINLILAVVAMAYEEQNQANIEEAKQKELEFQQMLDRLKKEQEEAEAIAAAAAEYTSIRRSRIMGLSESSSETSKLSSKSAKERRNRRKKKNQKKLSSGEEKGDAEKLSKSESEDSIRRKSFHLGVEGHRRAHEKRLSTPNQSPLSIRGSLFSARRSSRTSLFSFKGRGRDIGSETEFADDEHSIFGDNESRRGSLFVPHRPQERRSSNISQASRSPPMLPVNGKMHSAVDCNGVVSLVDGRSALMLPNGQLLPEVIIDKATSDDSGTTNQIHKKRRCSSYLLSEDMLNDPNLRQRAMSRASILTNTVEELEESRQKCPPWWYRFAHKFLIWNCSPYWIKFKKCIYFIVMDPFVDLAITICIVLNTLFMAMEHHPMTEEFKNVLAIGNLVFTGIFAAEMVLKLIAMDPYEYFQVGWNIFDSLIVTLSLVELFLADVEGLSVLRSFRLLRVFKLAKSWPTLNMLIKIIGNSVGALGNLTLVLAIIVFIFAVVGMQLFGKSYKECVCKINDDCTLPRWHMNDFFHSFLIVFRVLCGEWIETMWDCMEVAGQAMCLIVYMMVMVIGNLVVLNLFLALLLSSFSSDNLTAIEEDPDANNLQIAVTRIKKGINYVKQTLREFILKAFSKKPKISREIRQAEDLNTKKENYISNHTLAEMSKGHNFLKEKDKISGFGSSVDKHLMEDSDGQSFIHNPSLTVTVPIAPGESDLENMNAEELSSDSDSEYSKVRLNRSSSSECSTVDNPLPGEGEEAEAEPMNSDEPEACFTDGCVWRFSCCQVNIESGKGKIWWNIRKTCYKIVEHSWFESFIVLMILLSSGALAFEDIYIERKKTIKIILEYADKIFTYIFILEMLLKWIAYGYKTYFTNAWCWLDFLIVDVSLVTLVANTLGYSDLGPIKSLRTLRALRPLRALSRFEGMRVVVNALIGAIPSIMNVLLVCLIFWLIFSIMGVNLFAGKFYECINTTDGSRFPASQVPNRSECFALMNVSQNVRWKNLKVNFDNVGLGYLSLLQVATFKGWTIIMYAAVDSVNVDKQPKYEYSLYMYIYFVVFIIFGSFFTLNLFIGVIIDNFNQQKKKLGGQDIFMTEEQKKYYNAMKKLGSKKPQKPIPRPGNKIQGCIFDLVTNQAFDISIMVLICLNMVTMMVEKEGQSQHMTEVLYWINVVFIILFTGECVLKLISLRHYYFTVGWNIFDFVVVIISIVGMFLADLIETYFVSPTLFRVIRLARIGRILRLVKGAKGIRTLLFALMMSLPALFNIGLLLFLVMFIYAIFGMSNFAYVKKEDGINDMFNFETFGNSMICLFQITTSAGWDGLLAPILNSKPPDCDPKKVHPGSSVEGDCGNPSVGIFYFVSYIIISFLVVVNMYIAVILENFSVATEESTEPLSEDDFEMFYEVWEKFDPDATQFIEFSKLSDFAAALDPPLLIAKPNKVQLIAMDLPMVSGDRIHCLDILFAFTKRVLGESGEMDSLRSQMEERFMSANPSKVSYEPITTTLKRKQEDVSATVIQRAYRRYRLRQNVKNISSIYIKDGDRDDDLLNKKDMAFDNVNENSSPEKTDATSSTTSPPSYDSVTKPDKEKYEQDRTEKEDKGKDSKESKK
T1 sequence (Q9NY46 whole entry): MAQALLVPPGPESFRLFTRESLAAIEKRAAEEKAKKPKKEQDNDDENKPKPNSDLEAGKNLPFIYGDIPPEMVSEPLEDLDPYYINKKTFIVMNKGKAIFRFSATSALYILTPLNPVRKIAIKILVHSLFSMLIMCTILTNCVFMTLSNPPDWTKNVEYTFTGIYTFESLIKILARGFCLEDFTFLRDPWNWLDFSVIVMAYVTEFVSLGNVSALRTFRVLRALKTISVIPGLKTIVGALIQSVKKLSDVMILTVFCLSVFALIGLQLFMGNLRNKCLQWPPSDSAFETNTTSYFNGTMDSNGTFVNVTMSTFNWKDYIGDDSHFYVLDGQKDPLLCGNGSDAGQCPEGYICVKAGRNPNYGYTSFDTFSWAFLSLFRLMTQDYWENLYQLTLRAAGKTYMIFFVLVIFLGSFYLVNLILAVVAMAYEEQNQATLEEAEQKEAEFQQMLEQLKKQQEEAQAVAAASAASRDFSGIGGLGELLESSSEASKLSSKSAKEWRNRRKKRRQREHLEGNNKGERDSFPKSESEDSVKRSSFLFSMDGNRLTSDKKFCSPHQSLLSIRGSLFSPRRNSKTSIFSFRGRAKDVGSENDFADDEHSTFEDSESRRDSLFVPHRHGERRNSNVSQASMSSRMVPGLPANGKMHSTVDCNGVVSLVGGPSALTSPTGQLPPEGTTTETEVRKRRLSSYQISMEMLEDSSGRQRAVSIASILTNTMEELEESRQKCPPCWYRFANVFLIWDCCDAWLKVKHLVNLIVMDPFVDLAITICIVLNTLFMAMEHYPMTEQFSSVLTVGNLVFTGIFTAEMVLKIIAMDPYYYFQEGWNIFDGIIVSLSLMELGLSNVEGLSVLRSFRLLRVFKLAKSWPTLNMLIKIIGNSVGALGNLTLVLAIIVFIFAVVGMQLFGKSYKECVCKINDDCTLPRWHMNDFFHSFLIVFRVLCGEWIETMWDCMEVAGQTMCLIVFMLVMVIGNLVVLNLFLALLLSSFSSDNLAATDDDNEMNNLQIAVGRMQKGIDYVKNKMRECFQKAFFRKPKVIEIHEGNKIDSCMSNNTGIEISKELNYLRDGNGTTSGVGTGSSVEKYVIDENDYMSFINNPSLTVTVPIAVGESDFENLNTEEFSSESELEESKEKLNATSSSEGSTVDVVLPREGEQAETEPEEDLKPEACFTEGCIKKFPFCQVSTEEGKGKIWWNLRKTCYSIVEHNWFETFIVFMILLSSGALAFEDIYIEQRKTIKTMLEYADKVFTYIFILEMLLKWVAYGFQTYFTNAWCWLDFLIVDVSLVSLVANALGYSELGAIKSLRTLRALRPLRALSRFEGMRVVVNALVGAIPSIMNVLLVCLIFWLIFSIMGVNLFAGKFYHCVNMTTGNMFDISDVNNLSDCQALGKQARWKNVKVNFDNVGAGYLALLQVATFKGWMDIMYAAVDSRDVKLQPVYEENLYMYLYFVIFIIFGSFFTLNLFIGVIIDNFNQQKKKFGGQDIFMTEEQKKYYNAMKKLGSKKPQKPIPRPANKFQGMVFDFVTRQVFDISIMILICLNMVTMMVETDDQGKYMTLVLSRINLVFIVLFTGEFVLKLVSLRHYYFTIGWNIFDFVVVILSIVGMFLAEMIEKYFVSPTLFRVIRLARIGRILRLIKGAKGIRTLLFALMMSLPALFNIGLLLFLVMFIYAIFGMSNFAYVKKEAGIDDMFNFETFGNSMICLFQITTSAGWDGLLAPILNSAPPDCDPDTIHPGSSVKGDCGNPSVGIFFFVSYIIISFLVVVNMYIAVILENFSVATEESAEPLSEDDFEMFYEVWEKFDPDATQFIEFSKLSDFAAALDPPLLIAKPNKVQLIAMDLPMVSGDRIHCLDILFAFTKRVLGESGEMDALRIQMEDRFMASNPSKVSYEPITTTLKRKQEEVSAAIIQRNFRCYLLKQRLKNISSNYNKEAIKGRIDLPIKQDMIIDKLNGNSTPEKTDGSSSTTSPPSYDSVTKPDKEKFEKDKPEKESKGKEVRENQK

On to `CC(C)(C)c1csc(Nc2ccc(S(=O)(=O)Nc3nccs3)cc2)n1` [Compound 14, 4-(4-Tert-butyl-thiazol-2-ylamino)-N-thiazol-2-yl-benzenesulfonamide], for which the IC50 was less than 2000 nM in test [1] and 2000 to 10000 nM in test [2].
On the same counts, the results for `CC(C)(C)n1nc(Cc2ccc(Cl)cc2)cc1Nc1ccc(S(=O)(=O)Nc2nccs2)cc1` [Compound 15, 4-(1-tert-butyl-3-(4-chlorobenzyl)-1H-pyrazol-5-ylamino)-N-(thiazol-2-yl)benzenesulfonamide] are less than 2000 nM and less than 2000 nM.
The corresponding values for `O=S(=O)(Nc1nccs1)c1ccc(Nc2cc(Cc3ccc(Cl)cc3)n[nH]2)cc1` [Compound 16, 4-(3-(4-Chlorobenzyl)-1H-pyrazol-5-ylamino)-N-(thiazol-2-yl)benzenesulfonamide] are less than 2000 nM and less than 2000 nM.
The corresponding values for `Cn1nc(C(C)(C)C)cc1Nc1ccc(S(=O)(=O)Nc2nccs2)cc1` [Compound 17, 4-(3-Tert-butyl-1-methyl-1H-pyrazol-5-ylamino)-N-(thiazol-2-yl)benzenesulfonamide] are less than 2000 nM and 2000 to 10000 nM.
Regarding `CC(C)(C)c1cc(Nc2ccc(S(=O)(=O)Nc3nccs3)cc2)no1` [Compound 18], the IC50 in test [1] is less than 2000 nM; in test [2], more than 10000 nM.
On to `CC(C)(C)n1nc(Nc2ccc(S(=O)(=O)Nc3nccs3)cc2)nc1N` [Compound 19, 4-(5-Amino-1-tert-butyl-1H-1,2,4-triazol-3-ylamino)-N-(thiazol-2-yl)benzenesulfonamide], for which the IC50 in test [1] was less than 2000 nM; in test [2], more than 10000 nM.
Regarding `Cc1cc(Nc2ccc(S(=O)(=O)Nc3nccs3)cc2)n(-c2ccccc2)n1` [Compound 20, 4-(3-methyl-1-phenyl-1H-pyrazol-5-ylamino)-N-(thiazol-2-yl)benzenesulfonamide], the IC50 in test [1] was less than 2000 nM; in test [2] it was 2000 to 10000 nM.
As for `Cn1nc(Cc2ccc(Cl)cc2)cc1Nc1ccc(S(=O)(=O)Nc2nccs2)cc1` [Compound 21, 4-(3-(4-Chlorobenzyl)-1-methyl-1H-pyrazol-5-ylamino)-N-(thiazol-2-yl)benzenesulfonamide], the IC50 in test [1] and in test [2] was less than 2000 nM each time.
For `CC(C)(C)c1cc(Nc2ccc(S(=O)(=O)Nc3nccs3)cc2)n(C(C)(C)C)n1` [Compound 22, 4-(1,3-di-tert-butyl-1H-pyrazol-5-ylamino)-N-(thiazol-2-yl)benzenesulfonamide], the IC50 in test [1] and in test [2] was 2000 to 10000 nM each time.
For the molecule `CC(C)(C)c1cc(Nc2ccc(S(=O)(=O)Nc3nccs3)cc2)[nH]n1` [Compound 23, 4-(3-tert-butyl-1H-pyrazol-5-ylamino)-N-(thiazol-2-yl)benzenesulfonamide], the IC50 in test [1] and in test [2] was 2000 to 10000 nM each time.
In the case of `Nc1nc(Nc2ccc(S(=O)(=O)Nc3nccs3)cc2)nn1Cc1ccc(Cl)cc1` [Compound 24, 4-(5-amino-1-(4-chlorobenzyl)-1H-1,2,4-triazol-3-ylamino)-N-(thiazol-2-yl)benzenesulfonamide], the IC50 in test [1] was 2000 to 10000 nM; in test [2], more than 10000 nM.
`N#Cc1cnn(-c2ccc(F)c(Cl)c2)c1Nc1ccc(S(=O)(=O)Nc2nccs2)cc1` [Compound 25, 4-(1-(3-chloro-4-fluorophenyl)-4-cyano-1H-pyrazol-5-ylamino)-N-(thiazol-2-yl)benzenesulfonamide]: the IC50 in test [1] is less than 2000 nM; in test [2], more than 10000 nM.
The corresponding values for `CC(C)(C)n1nc(Cc2ccc(Cl)cc2)cc1Nc1ccc(S(=O)(=O)Nc2nccs2)c(F)c1` [Compound 26, 4-(1-tert-butyl-3-(4-chlorobenzyl)-1H-pyrazol-5-ylamino)-2-fluoro-N-(thiazol-2-yl)benzenesulfonamide] are less than 2000 nM and less than 2000 nM.
On the same counts, the results for `O=S(=O)(Nc1nccs1)c1ccc(Nc2nnc(Cc3ccc(C(F)(F)F)cc3)s2)cc1` [Compound 27, N-(thiazol-2-yl)-4-(5-(4-(trifluoromethyl)benzyl)-1,3,4-thiadiazol-2-ylamino)benzenesulfonamide] are less than 2000 nM and more than 10000 nM.
The corresponding values for `O=S(=O)(Nc1nccs1)c1ccc(Nc2nnc(Cc3ccc(C(F)(F)F)cc3)o2)cc1` [Compound 28, N-(thiazol-2-yl)-4-(5-(4-(trifluoromethyl)benzyl)-1,3,4-oxadiazol-2-ylamino)benzenesulfonamide] are less than 2000 nM and more than 10000 nM.
`Cn1nc(CC2CCCCC2)cc1Nc1ccc(S(=O)(=O)Nc2nccs2)cc1` [Compound 29, 4-(3-(cyclohexylmethyl)-1-methyl-1H-pyrazol-5-ylamino)-N-(thiazol-2-yl)benzenesulfonamide]: the IC50 in test [1] and in test [2] was less than 2000 nM throughout.
Take `Cc1cc(Nc2ccc(S(=O)(=O)Nc3nccs3)c(F)c2)n(-c2ccccc2)n1` [Compound 30, 2-fluoro-4-(3-methyl-1-phenyl-1H-pyrazol-5-ylamino)-N-(thiazol-2-yl)benzenesulfonamide]: the IC50 in test [1] and in test [2] was less than 2000 nM each time.
Turning to `O=S(=O)(Nc1nccs1)c1ccc(Nc2ccn(Cc3ccc(Cl)cc3)n2)cc1F` [Compound 31, 4-(1-(4-chlorobenzyl)-1H-pyrazol-3-ylamino)-2-fluoro-N-(thiazol-2-yl)benzenesulfonamide], the IC50 in test [1] and in test [2] was less than 2000 nM each time.
For the molecule `O=S(=O)(Nc1nccs1)c1ccc(Nc2cc(C3CC3)nn2-c2ccccc2)cc1F` [Compound 32, 4-(3-cyclopropyl-1-phenyl-1H-pyrazol-5-ylamino)-2-fluoro-N-(thiazol-2-yl)benzenesulfonamide], the IC50 in test [1] and in test [2] was less than 2000 nM each time.
Consider `O=S(=O)(Nc1nccs1)c1ccc(Nc2cnn(Cc3ccc(Cl)cc3)c2)cc1F` [Compound 33, 4-(1-(4-chlorobenzyl)-1H-pyrazol-4-ylamino)-2-fluoro-N-(thiazol-2-yl)benzenesulfonamide], for which the IC50 in test [1] and in test [2] was less than 2000 nM in each case.
Regarding `Cn1nc(CC(C)(C)C)cc1Nc1ccc(S(=O)(=O)Nc2nccs2)c(F)c1` [Compound 34, 2-fluoro-4-(1-methyl-3-neopentyl-1H-pyrazol-5-ylamino)-N-(thiazol-2-yl)benzenesulfonamide], the IC50 in test [1] and in test [2] was less than 2000 nM throughout.
Take `Cc1cc(Nc2ccc(S(=O)(=O)Nc3nccs3)cc2F)n(-c2ccccc2)n1` [Compound 35, 3-fluoro-4-(3-methyl-1-phenyl-1H-pyrazol-5-ylamino)-N-(thiazol-2-yl)benzenesulfonamide]: the IC50 in test [1] and in test [2] was less than 2000 nM each time.
Take `O=S(=O)(Nc1nccs1)c1ccc(Nc2cc(C3CC3)nn2-c2ccccc2)c(F)c1` [Compound 36, 4-(3-cyclopropyl-1-phenyl-1H-pyrazol-5-ylamino)-3-fluoro-N-(thiazol-2-yl)benzenesulfonamide]: the IC50 in test [1] and in test [2] was less than 2000 nM each time.
For the molecule `O=S(=O)(Nc1nccs1)c1ccc(Nc2ccccc2-c2ccccc2)cc1F` [Compound 37, 4-(Biphenyl-2-ylamino)-2-fluoro-N-thiazol-2-yl-benzenesulfonamide], the IC50 in test [1] and in test [2] was less than 2000 nM each time.
